How the values of series [1] were obtained:
The pH lowering ability of glycolide in its crystalline form, obtained from Purac Ltd., Holland, was tested in plasma at 37° C. as a function of time, compared to that of lactide and citric acid (also in crystalline form). All three materials were taken such as to eventually yield equal molar amounts of carboxylic acid groups.

How the values of series [2] were obtained: The same experiment was repeated by comparing the pH lowering kinetics of the same compounds, deposited onto a polymeric support in the form of weighed (240 mg), rectangular shaped pieces of non-woven (NW) tampon cloth (hereinafter referred to as “strips”) by evaporation from an acetone solution, substantially as described in WO 02/17981 and U.S. 2002/0045873 whose contents are hereby incorporated by reference in their entireties. The strips may be incorporated in a tampon. The strips were dipped in plasma at 37° C.
This is another data set of the same source.

Consider `O=C(O)CC(O)(CC(=O)O)C(=O)O` [citric acid], for which the “degradation / acid release kinetics (in words)” value in series [1] is “burst-like immediate release”. In addition, the “release behaviour on strips (in words)” value in series [2] (non-woven strips, plasma, 37° C. (FIG. 2)) is “behaved as previously described”.
Regarding `O=C1COC(=O)CO1` [glycolide], in series [1], the “degradation / acid release kinetics (in words)” value is on record as “significantly faster than that of lactide” and the “time in which degradation was completed” value is on record as “approximately 40 minutes”. For the same compound, in series [2], the “change in degradation rate when deposited on strips” value is “two-fold increase”.
With `CC1OC(=O)C(C)OC1=O` (stereo not shown) [lactide], the “time in which degradation was completed” value in series [1] was “approximately 120 minutes”. Moreover, the “change in degradation rate when deposited on strips” value in series [2] is given as “two-fold increase”.
